Data on one substance can be found in patent US8933147B2, “Anti-microbial dental impression material” (3M Innovative Properties Company, priority 2005, dated 2015).

For test [1], the system named is Streptococcus mutans (DSM 20523). As to the kind of experiment: Laboratory model of impression taking: material set against filters loaded with Streptococcus mutans, rinsed, remaining growth on agar. The class given is cell-based. Further details: key: confluent growth, +++; many colonies, ++; few colonies, +; no growth, −. Conditions: Impregum Garant L DuoSoft. As to the method: (§1) A laboratory system was worked out that models the clinical procedure of impression taking with concomitant contamination of the material, the removal of the material from the mouth and the subsequent cleaning by a brief rinse under tap water. The remaining contamination was determined by microbiological methods:
(§2) Impression material was applied into sterile Petri dishes. Filters loaded with Streptococcus mutans (DSM 20523) or stimulated human saliva were contacted with the material during setting. A Strep. mutans concentration of approx. 5E9 CFU/ml was chosen which is similar to the microorganismsl number found salviva. After setting, the material was removed from the contaminated filter and briefly rinsed with sterile water.
(§3) Remaining microorganisms were transferred to agar plates and the plates were incubated anaerobically at 37° C. to allow for growth of surviving microorganisms. Microorganisms growth was recorded as confluent growth, +++; many colonies, ++; few colonies, +; no growth, −.

A further test relates to salivary microorganisms. The test can be described thus: Laboratory model of impression taking: material set against filters loaded with stimulated human saliva, rinsed, remaining growth on agar. The class given is cell-based. Further details: key: confluent growth, +++; many colonies, ++; few colonies, +; no growth, −. To be noted: Impregum Garant L DuoSoft. As to the method: as §1, §2, §3

Setting [2] is: Chlorhexidine 1.5 % in cured paste.
Setting [3] is: Chlorhexidine 3.6 % in cured paste.

“chlorhexidine diacetate hydrate [CHX diacetate hydrate]”: the “Growth of S. mutans (initial conc. 5E9 CFU/ml)” value is reported as “−” in test [1] (Chlorhexidine 0.6-0.7 % in cured paste); “−” in test [1] (Chlorhexidine 0.8 % in cured paste); “−” in test [1] (setting [2]); “−” in test [1] (setting [3]); “+++” in test [1] (Chlorhexidine <0.2 % in cured paste). For the same substance, the “Growth of salivary microorganisms (initial conc. 5E7 CFU/ml)” value in the test on salivary microorganisms (setting [2]) and in the test with salivary microorganisms (setting [3]) was “−” in each case.
